Activity calls are given as the source filed them. No cut-off for these calls is given here.
How the values were obtained:
Mus musculus [1] = experiment: Neurotoxicity in BALB/c mouse at 300 mg/kg, ip after 0.5 to 4 hrs by rotarod test; assay type: toxicity, organism-based; set-up: dose 300 mg/kg, route intraperitoneal; details: in vivo
[2] = Neurotoxicity in ip dosed BALB/c mouse after 30 mins by rotarod test; assay type: toxicity, organism-based; details: in vivo
Mus musculus [3] = experiment: Anticonvulsant activity in ip dosed BALB/c mouse assessed as protection against maximal electroshock-induced seizure after 30 mins; assay type: functional; details: 0.5 h
Mus musculus [4] = experiment: Anticonvulsant activity in BALB/c mouse assessed as protection against maximal electroshock-induced seizure at 100 mg/kg, ip after 0.5 to 4 hrs; assay type: functional, organism-based; set-up: dose 100 mg/kg
Mus musculus [5] = species on record: Mus musculus; experiment: Protective index, ratio of TD50 for BALB/c mouse by rotarod test to ED50 for BALB/c mouse by maximal electroshock seizure test; assay type: functional
Mus musculus [6] = experiment: Neurotoxicity in BALB/c mouse at 100 mg/kg, ip after 0.5 to 4 hrs by rotarod test; assay type: toxicity, organism-based; set-up: dose 100 mg/kg, route intraperitoneal; details: in vivo
Mus musculus [7] = experiment: Anticonvulsant activity in BALB/c mouse assessed as protection against maximal electroshock-induced seizure at 300 mg/kg, ip after 0.5 to 4 hrs; assay type: functional, organism-based; set-up: dose 300 mg/kg

O=C(CN1C(=O)C(=O)c2ccccc21)Nc1ccccc1
Activity (Mus musculus [1]): Non-toxic
TD50 at 0.5 h [2]: > 1000 mg/kg
ED50 (Mus musculus [3]): 94.7 mg/kg
Activity (Mus musculus [4]): Active
Ratio TD50/ED50 (Mus musculus [5]): >10.6
Activity (Mus musculus [6]): Non-toxic

O=C(CN1C(=O)C(=O)c2cccc([N+](=O)[O-])c21)Nc1ccccc1
Activity (Mus musculus [1]): Non-toxic
Activity (Mus musculus [4]): Active
Activity (Mus musculus [6]): Non-toxic

O=C(CN1C(=O)C(=O)c2ccc(Br)cc21)Nc1ccccc1
Activity (Mus musculus [1]): Non-toxic
Activity (Mus musculus [4]): inactive
Activity (Mus musculus [6]): Non-toxic

O=C(CN1C(=O)C(=O)c2ccc(F)cc21)Nc1ccccc1
Activity (Mus musculus [1]): Non-toxic
Activity (Mus musculus [4]): inactive
Activity (Mus musculus [6]): Non-toxic

O=C(CN1C(=O)C(=O)c2ccc(Cl)cc21)Nc1ccccc1
Activity (Mus musculus [1]): Non-toxic
Activity (Mus musculus [4]): inactive
Activity (Mus musculus [6]): Non-toxic

O=C(CN1C(=O)C(=O)c2cccc(Br)c21)Nc1ccccc1
Activity (Mus musculus [1]): Non-toxic
Activity (Mus musculus [4]): inactive
Activity (Mus musculus [6]): Non-toxic

O=C(CN1C(=O)C(=O)c2cc(Br)ccc21)Nc1ccccc1
Activity (Mus musculus [1]): Non-toxic
Activity (Mus musculus [4]): Active
Activity (Mus musculus [6]): Non-toxic

O=C(CN1C(=O)C(=O)c2cccc(Cl)c21)Nc1ccccc1
Activity (Mus musculus [1]): Non-toxic
Activity (Mus musculus [4]): Active
Activity (Mus musculus [6]): Non-toxic

NC(=O)N1c2ccccc2C=Cc2ccccc21 [CARBAMAZEPINE]
TD50 at 0.5 h [2]: > 71.6 mg/kg
ED50 (Mus musculus [3]): 8.8 mg/kg

O=C(CN1C(=O)C(=O)c2cc(Br)cc(Br)c21)Nc1ccccc1
Activity (Mus musculus [1]): Non-toxic
Activity (Mus musculus [7]): Active
Activity (Mus musculus [6]): Non-toxic

O=C(CN1C(=O)C(=O)c2cc(F)ccc21)Nc1ccccc1
Activity (Mus musculus [1]): Non-toxic
TD50 at 0.5 h [2]: > 800 mg/kg
ED50 (Mus musculus [3]): 88 mg/kg
Activity (Mus musculus [4]): Active
Ratio TD50/ED50 (Mus musculus [5]): >9.1
Activity (Mus musculus [6]): Non-toxic

Cc1ccc2c(c1)C(=O)C(=O)N2CC(=O)Nc1ccccc1
Activity (Mus musculus [1]): Non-toxic
TD50 at 0.5 h [2]: > 1000 mg/kg
ED50 (Mus musculus [3]): 91.3 mg/kg
Activity (Mus musculus [4]): Active
Ratio TD50/ED50 (Mus musculus [5]): >11
Activity (Mus musculus [6]): Non-toxic

Cc1ccc2c(c1)N(CC(=O)Nc1ccccc1)C(=O)C2=O
Activity (Mus musculus [1]): Non-toxic
TD50 at 0.5 h [2]: > 1000 mg/kg
ED50 (Mus musculus [3]): 136 mg/kg
Activity (Mus musculus [4]): Active
Ratio TD50/ED50 (Mus musculus [5]): >7.3
Activity (Mus musculus [6]): Non-toxic

O=C1Nc2ccccc2C1=O [ISATIN]
Activity (Mus musculus [1]): Non-toxic
Activity (Mus musculus [7]): Active
Activity (Mus musculus [6]): Non-toxic

CCC1(c2ccccc2)C(=O)NC(=O)NC1=O [PHENOBARBITAL]
TD50 at 0.5 h [2]: > 69 mg/kg
ED50 (Mus musculus [3]): 21.8 mg/kg

O=C(CN1C(=O)C(=O)c2cc(Cl)ccc21)Nc1ccccc1
Activity (Mus musculus [1]): Non-toxic
TD50 at 0.5 h [2]: > 800 mg/kg
ED50 (Mus musculus [3]): 110 mg/kg
Activity (Mus musculus [4]): Active
Ratio TD50/ED50 (Mus musculus [5]): >7.3
Activity (Mus musculus [6]): Non-toxic

Cc1cccc2c1N(CC(=O)Nc1ccccc1)C(=O)C2=O
Activity (Mus musculus [1]): Non-toxic
TD50 at 0.5 h [2]: > 1000 mg/kg
ED50 (Mus musculus [3]): 114 mg/kg
Activity (Mus musculus [4]): Active
Ratio TD50/ED50 (Mus musculus [5]): >8.8
Activity (Mus musculus [6]): Non-toxic
